≈ marks a conversion by molar mass, not a printed value. Read-outs that look alike come from different tables or passages of the source.
What was measured:
[1] = test system: Leishmania promastigotes; assay: Leishmania promastigotes Assay; format: cell-based; settings: promastigotes, 3H-thymidine uptake, read-out: Leishmania IC50 ± SD
Procedure: A WHO reference vaccine strain of L. major originally isolated from a patient in Iran and a Kenyan strain of L. donovani (MHOM(/KE/85/NLB 274) were cultured in medium 199 containing 0.02 mg/ml gentamycin, 25 mM Hepes, 4 mM L-glutamine, and 20% heat inactivated fetal calf serum (FCS). Incubation was carried out at 26° C. Promastigotes were harvested on day 3 and 6 of the culture and used for the parasite growth inhibition.
The effect of the test compounds on promastigotes was assessed by a method similar to the one described by Pearson et al., by incubating promastigotes (3×10^6/ml) at 26° C. for 2 hrs in the presence of a given compound or the medium alone in 96 wells flat bottom microtiter plates. Following incubation, 100 μCi of 3H-thymidine was added to each well and further incubated for 18 hrs. Promastigotes were then harvested on filter paper by means of a cell harvester, extensively washed with distilled water and counted in a scintillation counter. The promastigotes were also counted microscopically and their flagellar motility was assessed.

[2] = test system: human lymphocytes; assay: Lymphocyte Proliferation Assay; format: cell-based; settings: PHA provoked proliferation of human lymphocytes, read-out: Lymphocytes IC50 ± SD
Procedure: Human blood mononuclear cells (BMNC) from heparinized blood were isolated by metrizoate sodium-Ficoll density gradient centrifugation, washed 3 times in RPMI 1640 medium supplemented with 5% FCS and with 400 IU of penicillin plus 400 μg/ml streptomycin. BMNC were resuspended in the medium and cultured in triplicate, 0.63×10^5/ml and 160 μl per vial, in round-bottom microtiter plates with 20 μl of various concentrations of the test compound. Immediately prior to incubation, optimum concentrations of the mitogen phytohaemagglutinin (PHA) and the antigen purified protein derivative of tuberculin (PPD) were added to the cultures in a volume of 20 μl. Unstimulated control cultures were always included. Cultures were incubated for 3 or 7 days. The degree of lymphocyte proliferation was estimated by ^3H-thymidine (1 μCi per well) addition 24 h before the cells were harvested on glass fiber filters by means of a harvesting machine), and ^3H-thymidine incorporation was measured in a liquid scintillation counter. For each set of triplicate values, the median was recorded. Unstimulated cultures were always included as controls.

[3] = test system: Plasmodium falciparum; assay: Plasmodium falciparum Assay; format: cell-based; settings: 3-H-hypoxanthine incorporation, 48 hours, read-out: Plasmodium IC50 ± SD
Procedure: The experiments in which compounds were tested for their ability to inhibit parasite growth were performed by a modification of the method originally described by Jensen et al. (1982). 50 μl of parasitized erythrocytes (parasitemia approximately 1%) in a concentration of 5×10^8/ml and 50 μl of RPMI medium containing different concentrations of the test compound was added to each well of a 96 well flat-bottomed microtiter plate. The cultures were then incubated for 48 hours, 24 hours before termination of the culture adding 20 μl of 3-H-hypoxanthine (40 uCi/ml) was added to each well. The cultures were then harvested onto glass fiber filters using a Skatron cell harvester, and the incorporation of 3-H-hypoxanthine into the DNA of dividing parasites was determined by liquid scintillation spectrometry. Control cultures with uninfected erythrocytes and infected erythrocytes in RPMI medium without test compounds were always performed in parallel to the test cultures. In some experiments thin smears of parasite cultures were stained by Giemsa and examined under microscope (×1000). The test compounds described above, were diluted in RPMI medium immediately before use. In the experiments, chloroquine phosphate was used as a positive control as a drug known to inhibit parasite growth.

[4] = test system: TNF-α; assay: TNF-α production by human peripheral blood mononuclear cells, culture supernatant (ELISA); format: cell-based
Procedure: Cells: Peripheral blood mononuclear cells obtained from healthy individuals. The cells were separated by a conventional method lymphoprep) and suspended in RMPI 1640 containing 5% human serum.
Stimulation of cytokine-release from human mononuclear cells: Human peripheral blood mononuclear cells from Danish donors were suspended in 1-10% (v/v) human serum in RPMI 1640 and adjusted to 2×10^6 cells per ml. 0.1 ml volumes were then dispensed into wells of 96-well microtiter plates. […] In some experiments cells were preincubated with drugs for 2 hrs before addition of stimulation antigens. The cultures were incubated overnight for TNF-α and IL-6 assays.
Supernatants were collected and assayed for TNF-α, IL-1α and IL-6 by ELISA procedures (Jakobsen et al., 1993, Fomsgaard et al., 1988, Hansen et al., 1991) with the following modifications. ELISA Maxisorp plates (Nunc, Roskilde, Denmark) were coated for 24 hrs at 4 C with 100 μl per well of 2.5 μg/ml rabbit polyclonal IgG to human recombinant TNF, IL-1α or IL-6 in 100 mM sodiumhydrogencarbonate. Non-attached sites were blocked for 1 h by 200 μl per well of 2% human serum slbumin in PBS (1 h at 37° C.), and the wells were washed 4 times in 2.5% NaCl, 0.1% Tween 20 (Merck, Darmstadt, Germany). This washing procedure was done after each of the following incubating steps:
1) 100 μl culture supernatants made to 50% (v/v) in incubation buffer (4% (v/v) normal rabbit serum, DAKO code X902), 1% polyethylene glycol (MW 6,000), 2.5% NaCl, 0.1% Tween 20 in phosphate buffered saline (PBS) were incubated 2 hrs at 37° C., dilutions of native as well as recombinant cytokine standards in the same incubation buffer were asssayed in parallel with the tested supernatants,
2) 100 μl per well of biotinilated rabbit antibodies to recombinant TNF-α, IL-1α or IL-6 (1.5 μg/ml in 0.5% human serum albumin, 0.1% Tween 20 in PBS) were added at 37° for 2 hrs,
3) […] per well of a 1:1000 dilution of streptavidin-peroxidase (Amersham, UK), at room temperature for 30 min.
Enzyme activities were quantitated after addition of 100 μl per well of 0.67 mg/ml 1,2-phenyldiamine hydrochloride (DAKO) dissolved in 100 mM citric acid-phosphate buffer, pH 5.0 containing 0.015% (v/v) H2O2. The reactions were stopped by adding 50 μl per well of 2.5 M H2SO4, and the optical densities are measured in an ELISA scanner at 490 nm against a test reference at 620 nm.
Assay: The compounds were prepared as stock solution at a concentration of 1 mg/ml in medium containing 10% DMSO. The dilutions were made in medium. The cells were stimulated with either SPAG (a malaria antigen TNF-inducer) or bacterial LPS. The supernatant of cell cultures were assayed for TNF-α using a commercial ELISA kit.

[5] = test system: Helicobacter pylori; assay: Helicobacter species Assay (agar plate, MIC); format: cell-based; settings: for MIC: Helicobacter pylori, 20 strains of H. pylori, agar plate, 72 hours, read-out: MIC; for No. strains inhibited/No. strains tested: at the MIC of the same line
Procedure: (§1) 20 strains of Helicobacter pylori were used in an agar plate assay. The compounds were incorporated in the agar plates at different concentrations as described in the examples and were then inoculated with different strains of Helicobacter pylori followed by incubation in a microaerophilic atmosphere at 37° C. for 72 hours. The number of colony-forming units (CFU) were counted after the incubation period. The MIC values were determined as the minimal concentration required to inhibit growth of the bacteria.
(§2) Stock solutions were made at a concentration of 1 mg/ml by dissolving 1 mg of each compound in 100 μl DMSO (dimethylsulfoxide) followed by addition of 900 μl of heat-inactivated fetal claf serum (HFCS). These stock solutions were diluted with HFCS to make solutions having the following concentrations: 320 μg/ml, 160 μg/ml, 80 μg/ml, 40 μg/ml and 20 μg/ml. Dilution rows were made with 3 ml aliquots in vials containing the compounds in the following final test concentrations: 16 μg/ml, 8 μg/ml, 4 μg/ml, 2 μg/ml and 1 μg/ml. As control was used DMSO-HFCS containing an amount of DMSO equal to the amount of test compound in the solution with 320 μg/ml compound.
as §1, with “Bacteria: 20” for “20”, “concentrations” for “concentrations as described in the examples”, “and then they” for “and”, “were” for “were then”, “incubation at” for “incubation in a”, “C. in” for “C. for”
as §2, with “concentrations: 2560 μg/ml, 1280 μg/ml, 640 μg/ml,” for “concentrations:”, “160 µg/ml and” for “160 μg/ml,”, “80” for “80 μg/ml, 40 μg/ml and 20”, “concentrations: 128 μg/ml, 64 μg/ml, 32 μg/ml, 12” for “concentrations: 16”, “8” for “8 μg/ml, 4 μg/ml, 2”, “and 4” for “and 1”
Bacteria: 20 strains of Helicobacter pylori were used in an agar plate assay. The same method as described above under Experiment A was employed and MIC values were determined.

[6] = Experiment 1, LPS, 12.5 μg/ml, Control 1.17
[7] = Experiment 1, LPS, 25 μg/ml, Control 1.17
[8] = Experiment 1, LPS, 50 μg/ml, Control 1.17
[9] = Experiment 1, LPS, 100 μg/ml, Control 1.17
[10] = Experiment 1, SPAG, 12.5 μg/ml, Control 3.73
[11] = Experiment 1, SPAG, 25 μg/ml, Control 3.73
[12] = Experiment 1, SPAG, 50 μg/ml, Control 3.73
[13] = Experiment 1, SPAG, 100 μg/ml, Control 3.73

## COc1ccc(C(=O)/C=C/c2ccccc2F)c(OC)c1OC [2-F-2′,3′,4′-OCH3, 2-fluoro-2′,3′,4′-trimethoxychalcone]
[1]; Leishmania
  IC50: 15 ± 1 µM
[2]; Lymphocyte
  IC50: 11 ± 1 µM
other
  melting point: 75 to 75.8 °C

## COc1ccc(/C=C/C(=O)c2ccc(OC)cc2)cc1 [4′,4-OCH3]
[1]
  IC50: 106 ± 9 µM
[2]
  IC50: 112 ± 8 µM
[3]
  IC50: 51 µM

## O=C(/C=C/c1ccc(O)cc1)c1ccc(O)cc1 [4′-4-OH]
[1]
  IC50: 83 ± 5 µM
[2]
  IC50: 59 ± 3 µM
[3]
  IC50: 17 µM

## O=C(/C=C/c1ccccc1)c1ccc(F)cc1 [4′-F, 4′-fluorochalcone]
[1]; Leishmania
  IC50: 15 ± 1 µM
[2]; Lymphocyte
  IC50: 23 ± 2 µM
[3]; Plasmodium falciparum
  IC50: 51 µM

## CN(C)c1ccc(/C=C/C(=O)c2ccc([N+](=O)[O-])cc2)cc1 [4′-NO2-4-N(CH3)2, 4-dimethylamino-4′-nitrochalcone]
other
  melting point: 214 to 214.7 °C

## CCCCCCOc1ccc(C(=O)/C=C/c2ccccc2)cc1 [4′-OC6H13]
[1]
  IC50: 62 ± 5 µM
[2]
  IC50: 99 ± 7 µM
[3]
  IC50: 17 µM

## O=C(/C=C/c1ccccc1)c1ccccc1 [Chalcon]
[1]; Leishmania
  IC50: 20 ± 1 µM
[2]; Lymphocyte
  IC50: 21 ± 2 µM
[3]; Plasmodium falciparum
  IC50: 44 µM

## COc1c(/C=C/C(=O)c2ccc(O)cc2)ccc(O)c1CC=C(C)C [Licochalcone C, 2-methoxy-3-(3-methyl-2-butenyl)-4,4′-dihydroxychalcone]
[1]; Leishmania
  IC50: 55 ± 3 µM
[2]; Lymphocyte
  IC50: 53 ± 2 µM
[3]; Plasmodium falciparum
  IC50: 16 µM

## COc1cc(/C=C/C(=O)c2ccc(N(C)C)cc2)cc(OC)c1 [PH32, 4′-dimethylamino-3,5-dimethoxychalcone]
[3]; Plasmodium falciparum
  IC50: 17 µM
[4]
  inhibitory effect on TNF-α production: no or very little inhibitory effect
[4]; [6]
  TNF-α production (OD values): 1.23 OD
[4]; [7]
  TNF-α production (OD values): 1.55 OD
[4]; [8]
  TNF-α production (OD values): 1.28 OD
[4]; [9]
  TNF-α production (OD values): 0.94 OD
[4]; [10]
  TNF-α production (OD values): 3.90 OD
[4]; [11]
  TNF-α production (OD values): 2.26 OD
[4]; [12]
  TNF-α production (OD values): 1.74 OD
[4]; [13]
  TNF-α production (OD values): 0.75 OD
[5]
  MIC: > 128 µg/mL
  No. strains inhibited/No. strains tested: 0/20

## CCCCOc1cccc(C(=O)/C=C/c2ccc(OC)cc2OC)c1 [PH81, 3′-butoxy-2,4-dimethoxychalcone]
[1]; Leishmania
  IC50: 20 ± 3 µM
[2]; Lymphocyte
  IC50: 65 ± 4 µM
[3]; Plasmodium falciparum
  IC50: 16 µM
[5]
  MIC: 16 µg/mL (≈ 47 µM)
  No. strains inhibited/No. strains tested: 5/20

## CCCCOc1ccccc1C(=O)/C=C/c1ccc(OC)cc1OC [PH142, 2′-butoxy-2,4-dimethoxychalcone]
[4]; [6]
  TNF-α production (OD values): 0.26 OD
[4]; [7]
  TNF-α production (OD values): 0.24 OD
[4]; [8]
  TNF-α production (OD values): 0.18 OD
[4]; [9]
  TNF-α production (OD values): 0.10 OD
[4]; [10]
  TNF-α production (OD values): 0.02 OD
[4]; [11]
  TNF-α production (OD values): 0.02 OD
[4]; [12]
  TNF-α production (OD values): 0.02 OD
[4]; [13]
  TNF-α production (OD values): 0.02 OD
[4]; Experiment 2, LPS, 1.562 μg/ml, Control 2.06
  TNF-α production (OD values): 1.58 OD
[4]; Experiment 2, LPS, 3.125 μg/ml, Control 2.06
  TNF-α production (OD values): 1.00 OD
[4]; Experiment 2, LPS, 6.25 μg/ml, Control 2.06
  TNF-α production (OD values): 0.65 OD
[4]; Experiment 2, LPS, 12.5 μg/ml, Control 2.06
  TNF-α production (OD values): 0.16 OD
[4]; Experiment 2, SPAG, 1.562 μg/ml, Control 2.28
  TNF-α production (OD values): 1.86 OD
[4]; Experiment 2, SPAG, 3.125 μg/ml, Control 2.28
  TNF-α production (OD values): 0.55 OD
[4]; Experiment 2, SPAG, 6.25 μg/ml, Control 2.28
  TNF-α production (OD values): 0.04 OD
[4]; Experiment 2, SPAG, 12.5 μg/ml, Control 2.28
  TNF-α production (OD values): 0.02 OD
[5]
  MIC: 128 µg/mL (≈ 376 µM)
  No. strains inhibited/No. strains tested: 2/20
